In ChEMBL document CHEMBL1153791, “Acylphloroglucinol, biyouyanagiol, biyouyanagin B, and related spiro-lactones from Hypericum chinense” (J Nat Prod, 2009):
Values after ≈ are worked out from the molar mass of the structure shown.

Assays:
Assay type in all cases: functional, cell-based
[1] = Cytotoxicity against human multidrug resistant KB-C2 cells after 48 hrs by MTT assay in the presence of colchicine; settings: KB-C2, 48 h
[2] = system: K562; assay: Cytotoxicity against human K562 cells after 48 hrs by MTT assay; settings: K562, 48 h
[3] = system: COLO 205; assay: Cytotoxicity against human COLO205 cells after 48 hrs by MTT assay; settings: COLO 205, 48 h
[4] = system: KB; assay: Cytotoxicity against human KB cells after 48 hrs by MTT assay
[5] = system: MCF7; assay: Cytotoxicity against human MCF7 cells after 48 hrs by MTT assay; settings: MCF7, 48 h
[6] = Cytotoxicity against human multidrug resistant KB-C2 cells after 48 hrs by MTT assay; settings: KB-C2, 48 h
[7] = system: K562; assay: Cytotoxicity against human doxorubicin-resistant K562 cells after 48 hrs by MTT assay; settings: K562, 48 h

| SMILES | IC50 [1] | IC50 [2] | IC50 [3] | IC50 [4] | IC50 [5] | IC50 [6] | IC50 [7] |
| --- | --- | --- | --- | --- | --- | --- | --- |
| C=C[C@@]1(C)COC(=O)C1(O)C(=O)/C=C(\O)c1ccccc1 (some centres undefined) | 53.1 µg/mL | > 100 µg/mL | 79 µg/mL (≈ 274 µM) | > 100 µg/mL | 62.1 µg/mL (≈ 215 µM) | > 100 µg/mL | 33.7 µg/mL (≈ 117 µM) |
| COC(=O)[C@@]1(O)C(=O)[C@](C)(CC=C(C)C)C(=O)C12C[C@H]1[C@@H](CC[C@@]1(C)O)[C@@](C)(O)C2 (some centres undefined) [BIYOUYANAGIOL] | 47.8 µg/mL | > 100 µg/mL | > 100 µg/mL | > 100 µg/mL | > 100 µg/mL | > 100 µg/mL | > 100 µg/mL |
| C=C[C@@]1(C)COC(=O)[C@]12OC(c1ccccc1)=CC2=O [HYPERLACTONE C] | 51.8 µg/mL | > 100 µg/mL | 58.5 µg/mL (≈ 216 µM) | > 100 µg/mL | 77.7 µg/mL (≈ 287 µM) | > 100 µg/mL | 32.8 µg/mL (≈ 121 µM) |
| OC[C@H]1[C@@H](Cc2ccc3c(c2)OCO3)CO[C@@H]1c1ccc2c(c1)OCO2 [DIHYDROSESAMIN] | 53.1 µg/mL | > 100 µg/mL | 79 µg/mL (≈ 222 µM) | > 100 µg/mL | 62.1 µg/mL (≈ 174 µM) | > 100 µg/mL | 33.7 µg/mL (≈ 94.6 µM) |
| COc1cccc2c1C(=O)c1c(O)c3c(c(O)c1C2=O)C[C@@](O)(C(C)=O)C[C@@H]3O[C@H]1C[C@H](N)[C@H](O)[C@H](C)O1 [DAUNORUBICIN] |  | 0.45 µg/mL (≈ 0.853 µM) | 0.5 µg/mL (≈ 0.948 µM) | 0.22 µg/mL (≈ 0.417 µM) | 0.33 µg/mL (≈ 0.626 µM) | > 100 µg/mL | 15.2 µg/mL (≈ 28.8 µM) |
| C=C[C@@]1(C)COC(=O)C1C(=O)/C=C(\O)c1ccccc1 (some centres undefined) [HYPERLACTONE D] | 24.6 µg/mL | 47.8 µg/mL (≈ 176 µM) | 37.5 µg/mL (≈ 138 µM) | 61 µg/mL (≈ 224 µM) | 52.9 µg/mL (≈ 194 µM) | 22.3 µg/mL (≈ 81.9 µM) | 20 µg/mL (≈ 73.4 µM) |
| COc1cc(/C=C/C(=O)OC[C@H](Cc2ccc(O)c(OC)c2)[C@H](CO)Cc2ccc(O)c(OC)c2)ccc1O [HANULTARIN] | 20.9 µg/mL | 35.2 µg/mL (≈ 65.4 µM) | 16.8 µg/mL (≈ 31.2 µM) | 33.7 µg/mL (≈ 62.6 µM) | 18.9 µg/mL (≈ 35.1 µM) | 20.7 µg/mL (≈ 38.4 µM) | 33.1 µg/mL (≈ 61.5 µM) |
| C=C[C@@]1(C)COC(=O)[C@]12OC([C@H](C)CC)=CC2=O [HYPERLACTONE A] | 70.8 µg/mL | > 100 µg/mL | > 100 µg/mL | > 100 µg/mL | > 100 µg/mL | > 100 µg/mL | 47.1 µg/mL (≈ 188 µM) |
| COc1cc(/C=C/C(=O)OC[C@H](Cc2ccc(O)c(OC)c2)[C@H](COC(=O)/C=C/c2ccc(O)c(OC)c2)Cc2ccc(O)c(OC)c2)ccc1O | 4.5 µg/mL | 17.3 µg/mL (≈ 24.2 µM) | 5.2 µg/mL (≈ 7.28 µM) | 14.1 µg/mL (≈ 19.7 µM) | 5.9 µg/mL (≈ 8.25 µM) | 9.4 µg/mL (≈ 13.2 µM) | 19.9 µg/mL (≈ 27.8 µM) |
| C=C[C@@]1(C)COC(=O)[C@]12O[C@]1(c3ccccc3)[C@H](C2=O)[C@H]2[C@H]([C@H](C)CCC=C(C)C)CC=C(C)[C@H]21 [BIYOUYANAGIN A] | 16.8 µg/mL | 31.1 µg/mL (≈ 65.5 µM) | 26.9 µg/mL (≈ 56.7 µM) | 38.8 µg/mL (≈ 81.7 µM) | 27.1 µg/mL (≈ 57.1 µM) | 36.2 µg/mL (≈ 76.3 µM) | 16.6 µg/mL (≈ 35 µM) |
